Consider 1 substance from patent US20260117171A1, “Human Pregnancy on a Chip for Normal and Disease Biomarker Discovery and Preclinical Trials” (Board of Regents, The University of Texas System, priority 2023, published 2026).

The test system of this assay is CD45+ cells. As to the kind of experiment: CD45+ cell trafficking between maternal/fetal compartments in the OOC device in response to an infectious stimulus. Format: cell-based, human. Particulars: LPS as infectious stimulus, preliminary study. The procedure:
Immune cell migration and phenotyping by Cytometry by Time Of Flight (CyTOF) analysis: Preliminary CD45+ cell trafficking studies between the maternal/fetal compartments in the OOC device in response to an infectious stimulus (lipopolysaccharide [LPS]), to mimic bacterial infection, was conducted. In this model, LPS increased CD45+ cell influx into the fetal side and increased inflammation. Similar experiments can be repeated, and cell marker specificity can be tested through flow cytometry and immunocytochemistry^178. To study immunophenotypic changes associated with migrating immune cells, a multiplex tissue imaging technology can be used, e.g., Imaging Mass Cytometry (IMC) at an unprecedented resolution^179. IMC allows highly multiplexed, metal-based detection of 30 different protein markers at the same time, and enables high-dimensional, single-cell analysis of complex cell types without any background noise^180-184 (see Table 3 for a list of key/exemplary antibodies). For IMC, the top PDMS part can be removed so that fixed/attached cells stay on the histological glass slides on which the OOC device is built. IMC technology can be introduced to the OOC field, which allows for the analysis of cellular-level changes in OOC.

Regarding lipopolysaccharide [LPS], the “CD45+ cell influx into the fetal side” value is recorded as “increased” and the inflammation result is given as “increased”.
